Literature values as cited in patent US10398729B2, “Method for treating Alzheimer's disease” (priority 2012, dated 2019).

Experiments:
[1] = test system: patients with mild-to-moderate AD
[2] = test system: primary human fibroblast cells (IMR-90); settings: IMR-90 cells in vitro
hepatoma cells SMMC-7721 = settings: 20.0 μmol/L chromic chloride
[3] = test system: elderly adults with early memory decline
brain functions = settings: prolonged intranasal administration

In the case of `C=C1/C(=C\C=C2/CCC[C@]3(C)[C@@H]([C@H](C)CCCC(C)(C)O)CC[C@@H]23)C[C@@H](O)C[C@@H]1O` [1,25D3, 1alpha,25-dihydroxyvitamin D3], the apoptosis (macrophages) is given as “protecting against apoptosis” and the “Abeta phagocytosis and clearance” value (macrophages; studied in combination with curcuminoids) is given as “strongly stimulated”.
For `CCCCCCCC(=O)OCC(COC(=O)CCCCCCC)OC(=O)CCCCCCC` [AC-1202], the memory and cognition [1] is given as “improves memory and cognition”.
For `CC(C)(C)NO` [N-tert-butylhydroxylamine (NtBHA), N-tert-butylhydroxylamine], the “senescence-related and H2O2-stimulated iron accumulation” value [2] is given as “attenuated”.
For `[Cl][Cr]([Cl])[Cl]` [chromic chloride], the telomere lengths (hepatoma cells SMMC-7721) is given as “remarkably extended the telomere lengths”.
For chromium picolinate, the “cognitive performance and brain function” value [3] is given as “can improve cognitive performance and brain function”.
In the case of insulin, the memory and mood (brain functions) is given as “improving memory and mood” and the systemic side effects (brain functions) is given as “absence of systemic side effects”.
